What was measured:
4T1 tumours [1] = assay: RNA-seq of 4T1 tumours from treated mice (retrotransposon expression, immune signatures); assay type: in vivo, mouse
Description: (§1) mRNA capture and stranded library preparation of RNA from MCF7 cells, mouse cell lines and tumours for the purpose of retrotransposon expression analysis was performed using the KAPA Stranded mRNA-Seq Kit (Illumina) according to the provided protocol.
(§2) RNA-seq data were expressed in transcript per million (TPM), 0.01 offset. Expression read counts of retrotransposons are calculated using the RepEnrich tool (https://github.com/nerettilab/RepEnrich), and normalized to the total mappable read depth. The repeat genome of the human reference genome hg19 was download from the RepEnrich website. Human retrotransposon classes (LINE, SINE, LTR) contain 16 families and 779 subfamilies. The repeat genome of the mouse genome mm10 was built using the repeat masker track from the UCSC genome browser. Mouse retrotransposon classes (LINE, SINE, LTR) contain 24 families and 906 subfamilies.
(§3) All the experimental procedures were approved by the Institutional Animal Care and Research Advisory Committee of the KU Leuven. 1×10^6 4T1 cells, Hif1b-knockout or wild-type (scramble), were injected orthotopically in the mammary gland of 10 weeks old Balb/c mice, and 1×10^6 CT26 or MC38 cells were injected subcutaneously in 10 weeks old Balb/c or C57BL/6J mice, respectively. When the tumour was palpable (starting volume 100 mm^3), the mice were injected intraperitoneally with 0.8 mg/kg of 5-aza-2′-deoxycytidine (aza) or PBS, 40 mg/kg DC101 antibody (BE0089, InVivoMab) or IgG (BE0060, InVivoMab) or 10 mg/kg anti-PD1 antibody (6E0146, InVivoMab) or IgG antibody (BE0089, InVivoMab) according to the following schedules: DC101 three times per week; anti-PD1 every other day, starting when the tumour size was around 200 mm^3; aza was administered in 2 cycles with 2-days rest in between until the control tumours reached the endpoint. Tumour volumes were monitored every two to three days by a calliper, and mice were culled before tumour volumes exceeded 2,000 mm^3. When over 20% of mice were culled, the experiment was terminated (all arms). In vivo experiments in 4T1, CT26 and MC38 treated with aza or anti-PD1 antibody were performed three times, with at least 6 mice per treatment group in each experiment.

MCF7 cells [2] = assay: DNA methylation in aza-treated MCF7 cells (LC-ESI-MS/MS of 5mC, BS-seq); assay type: cell-based, human
[3] = system: HIF1β binding peaks in MCF7 cells; assay: HIF1β ChIP-seq in hypoxic vehicle- and aza-treated MCF7 cells
[4] = system: HIF1B-knockout MCF7 cells; assay: Retrotransposon expression by mRNA-seq and RepEnrich in HIF1B-knockout MCF7 cells; assay type: cell-based, human
Description: MCF7, RCC4, SK-MEL-28, A549, 4T1, MC38 and CT26 cell lines were obtained from the American Type Culture Collection and their identity was not further authenticated. These are not listed in the database of commonly misidentified cell lines maintained by ICLAC. MCF7 HIF1B-knockout cells were previously described (Ahmed et al. 2013, Toxicol Sci 138:89-103). MCF7, RCC4, A549, MC38 and 4T1 cells were cultured at 37° C. in Dulbecco's modified Eagle medium (DMEM) with 10% fetal bovine serum (FBS), 5 mL of 100 U/mL Penicillin-Streptomycin (Pen Strep, Life Technologies) and 5 mL of L-Glutamine 200 mM. SK-MEL-28 and CT26 cell lines were cultured at 37° C. in Roswell Park Memorial Institute 1640 Medium (RPMI) with 10% FBS 1% Penicillin-Streptomycin and 1% L-Glutamine.
Where indicated, cells were pre-treated with 5-aza-2′-deoxycytidine (aza, 1 μM) for 3 days by adding the correct volume to fresh culture medium while using an equal volume of the carrier (DMSO) as control. This was followed by another day of exposure to aza in hypoxia or normoxia, bringing the total aza exposure time for experiments to 4 days. […]
RNA-seq data were expressed in transcript per million (TPM), 0.01 offset. Expression read counts of retrotransposons are calculated using the RepEnrich tool (https://github.com/nerettilab/RepEnrich), and normalized to the total mappable read depth. […]

MCF7 cells [5] = assay: Retrotransposon expression by mRNA-seq and RepEnrich in MCF7 cells; assay type: cell-based, human
Description: (§4) Where indicated, cells were pre-treated with 5-aza-2′-deoxycytidine (aza, 1 μM) for 3 days by adding the correct volume to fresh culture medium while using an equal volume of the carrier (DMSO) as control. This was followed by another day of exposure to aza in hypoxia or normoxia, bringing the total aza exposure time for experiments to 4 days. 2 mM of DMOG (dimethyloxalylglycine, Sigma) was added to culture medium for 24 hours where indicated.
as §1, §2

4T1^Hif1b-scr grafts = assay: 4T1 Hif1b-scr (scramble-control) grafts in mice treated with aza or vehicle; assay type: in vivo, mouse
From the text: (§5) Four gRNAs targeting two different exons in the Hif1b locus of the mouse genome and one non-targeting gRNA (scramble) were designed with the appropriate restriction sites for the receiver plasmid using the online Crispor tool (http://crispor.tefor.net). Oligonucleotides corresponding to gRNAs were synthesized by IDT, and forward and reverse oligonucleotides were annealed in the CutSmart buffer (B7240S, NEB) before cloning into the LentiGuide-Puro plasmid (Plasmid 52963, Addgene). Positive colonies were screened by PCR and validated by Sanger sequencing. LentiGuide-Puro plasmids containing GFP was used as positive control to evaluate the transfection- and transduction-efficacy.
(§6) 4T1 cells were transduced with a lentiviral vector expressing a doxycycline inducible Cas9 nuclease (Cat #CAS11229, Dharmacon) for a tight regulation of the Cas9 expression and gene editing. An infection rate of 30% was used to ensure that the majority of transduced cells harbour a single copy of the vector. These 4T1 cells were always kept in selection medium containing 10 μg/mL of blasticidin (ant-bl-05, Invivogen). When reaching 70% confluency, cells were transduced with one titer of virus. After 24h, the virus was removed and transduction efficacy evaluated based on GFP expression. After 48h, puromycin (P9620, Sigma-Aldrich) 1.5 μg/mL medium was added to the medium. Cells were kept in the presence of blasticidin and puromycin for the remaining experimental procedures. After 3-5 days, Cas9 expression was induced by adding […] (D2975000, Sigma-Aldrich) 0.5 μg/mL medium for 3 days. Cells were kept one day without […] before injection in the mice or further experimental procedures. 4T1 cells transduced with the four gRNAs targeting Hif1b were expanded and proteins were extracted to test the efficacy of the knockout by western blot. […]
(§7) All the experimental procedures were approved by the Institutional Animal Care and Research Advisory Committee of the KU Leuven. […] Tumour volumes were monitored every two to three days by a calliper, and mice were culled before tumour volumes exceeded 2,000 mm^3. […]

4T1 tumours [6] = assay: Growth of orthotopic 4T1 tumours in mice; assay type: in vivo, mouse; settings: aza versus vehicle, P=3.0×10^-3
Description: as §3

4T1 tumours [7] = assay: Immunofluorescence of 4T1 tumours (CD31, pimonidazole, CD8, granzyme B); assay type: in vivo, mouse; settings: aza versus vehicle
Description: as §3, with “experiment. […]” for “experiment.”

4T1 cells = assay: Retrotransposon expression in 4T1 cells in vitro; assay type: cell-based, mouse
Description: as §4, §1, §2

4T1^Hif1b-KO grafts = assay: 4T1 Hif1b-KO grafts in mice treated with aza or vehicle; assay type: in vivo, mouse
From the text: as §5, §6, §7

[8] = aza versus PBS, GSVA on immune metagenes

Nc1ncn([C@H]2C[C@H](O)[C@@H](CO)O2)c(=O)n1 [aza, 5-aza-2′-deoxycytidine]
activated T cell and natural killer cell signatures (4T1 tumours [1]; [8]): upregulated
myeloid-derived suppressor cell signatures (4T1 tumours [1]; [8]): downregulated
cell proliferation marker expression (4T1 tumours [1]; aza versus vehicle): did not reduce
retrotransposon expression (4T1 tumours [1]; in vivo, aza versus vehicle): increased
overall reduction of DNA methylation (MCF7 cells [2]; MCF7 cells pharmacologically demethylated with aza (1 μM, 4 days)): 70.5±5.5%
reduced methylation at new HIF1β binding sites in aza-treated cells (MCF7 cells [2]; aza-treated versus untreated MCF7 cells): 2.5 fold
new HIF1β binding peaks exposed ([3]; HIF1β ChIP-seq, hypoxia 0.5% O2 16 hours): 1,236
fraction of aza-specific HIF1β binding peaks in retrotransposons ([3]; versus 4.1% in vehicle-treated MCF7 cells): 8.1%
enrichment of novel aza-specific HIF1β binding peaks for retrotransposons ([3]; versus peaks in vehicle-treated MCF7 cells): 2 fold
retrotransposon overexpression (increase) ([4]; aza alone): 25%
retrotransposon overexpression (increase) ([4]; aza in hypoxia): 20%
increase in expression of the 176 retrotransposon subfamilies bound by HIF1β (MCF7 cells [5]; aza alone): 23%
expression of the 59 retrotransposons correlated with cytolytic activity (MCF7 cells [5]; aza-treated MCF7 cells, P<0.05): upregulated
average increase in retrotransposon expression (MCF7 cells [5]; combined aza and chronic (4-day) hypoxia): 45%
increase in expression of the 176 retrotransposon subfamilies bound by HIF1β (MCF7 cells [5]; combined aza and hypoxia (24 hours, 0.5% O2)): 27%
cancer testis antigen expression (4T1^Hif1b-scr grafts; aza treatment): significant upregulation
graft size (4T1^Hif1b-scr grafts; aza versus vehicle, P=0.021): significantly reduced size
number of activated T cells (4T1^Hif1b-scr grafts; following aza): increased
change in tumour growth (4T1 tumours [6]): −32%
increase in number of activated, granzyme B-positive T cells (4T1 tumours [7]; P<0.05): 2.1 fold
T-cell infiltration (4T1 tumours [7]; immunofluorescence of CD8+ T cells): unaffected
retrotransposon expression (4T1 cells): increase
cancer testis antigen expression (4T1^Hif1b-KO grafts; aza treatment): significant upregulation
graft size (4T1^Hif1b-KO grafts; aza versus vehicle, P=0.21): failed to show this reduction
number of activated T cells (4T1^Hif1b-KO grafts; following aza): failed to show such increase

— patent US20220090209A1, “RETROTRANSPOSON BIOMARKERS” (VIB VZW, priority 2019, published 2022)
